Results as given in ChEMBL document CHEMBL1201862, “PubChem BioAssay data set” (2004).
Active and inactive are the calls of the source.

Key:
Format in all cases: functional
[1] = molecular target: ALK tyrosine kinase receptor (Homo sapiens, UniProt Q9UM73);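 also: ALK tested as one member of a kinase panel screen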
[2] = molecular target: Mitogen-activated protein kinase 8 (Homo sapiens, UniProt P45983);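 also: value comes from one member of a kinome-wide kinase profiling panel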
[3] = molecular target: Protein kinase C theta type (Homo sapiens, UniProt Q04759); assay: Navigating the Kinome. Panel member name: PRKCQ
[4] = molecular target: Cyclin-dependent kinase 9 (Homo sapiens, UniProt P50750);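 also: value from the CDK9 entry of a kinome-spanning kinase panel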
[5] = molecular target: Tyrosine-protein kinase receptor TYRO3 (Homo sapiens, UniProt Q06418);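 also: TYRO3 value obtained as one member of a kinome-wide profiling panel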
LIM domain kinase 1 = LIM domain kinase 1 (Homo sapiens, UniProt P53667); assay: Navigating the Kinome. Panel member name: LIMK1
[6] = molecular target: Tyrosine-protein kinase ABL1 (Homo sapiens, UniProt P00519)
Chain of Tyrosine-protein kinase ABL1 (P00519 whole entry): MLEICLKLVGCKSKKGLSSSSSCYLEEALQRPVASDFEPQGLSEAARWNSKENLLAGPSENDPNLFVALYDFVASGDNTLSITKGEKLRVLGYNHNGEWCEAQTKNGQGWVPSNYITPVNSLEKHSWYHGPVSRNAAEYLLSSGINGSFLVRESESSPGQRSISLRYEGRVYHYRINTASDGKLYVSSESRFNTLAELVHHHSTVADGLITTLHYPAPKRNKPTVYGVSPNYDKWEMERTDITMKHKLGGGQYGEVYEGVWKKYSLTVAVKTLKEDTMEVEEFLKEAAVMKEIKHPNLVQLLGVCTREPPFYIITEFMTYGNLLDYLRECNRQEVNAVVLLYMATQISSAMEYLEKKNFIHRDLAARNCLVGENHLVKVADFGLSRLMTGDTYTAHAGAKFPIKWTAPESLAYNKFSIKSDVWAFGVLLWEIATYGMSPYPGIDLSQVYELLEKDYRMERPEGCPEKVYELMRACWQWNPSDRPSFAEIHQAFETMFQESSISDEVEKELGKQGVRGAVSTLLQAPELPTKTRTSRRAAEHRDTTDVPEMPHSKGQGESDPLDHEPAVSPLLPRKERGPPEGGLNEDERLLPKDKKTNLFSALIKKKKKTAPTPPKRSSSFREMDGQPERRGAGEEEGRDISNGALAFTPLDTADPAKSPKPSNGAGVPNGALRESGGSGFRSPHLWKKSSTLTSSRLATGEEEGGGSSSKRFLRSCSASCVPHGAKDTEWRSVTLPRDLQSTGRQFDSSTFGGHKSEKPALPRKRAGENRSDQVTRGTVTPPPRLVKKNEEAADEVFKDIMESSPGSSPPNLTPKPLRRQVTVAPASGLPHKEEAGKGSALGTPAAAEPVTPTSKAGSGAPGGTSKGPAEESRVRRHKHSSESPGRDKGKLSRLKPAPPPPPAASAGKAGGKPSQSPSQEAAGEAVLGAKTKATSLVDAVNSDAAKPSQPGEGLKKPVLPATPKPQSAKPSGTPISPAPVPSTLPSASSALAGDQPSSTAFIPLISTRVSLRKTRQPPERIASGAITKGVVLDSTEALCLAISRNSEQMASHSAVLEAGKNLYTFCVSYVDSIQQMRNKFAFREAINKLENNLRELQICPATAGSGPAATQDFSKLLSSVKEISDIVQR

Activin receptor type-1 = Activin receptor type-1 (Homo sapiens, UniProt Q04771); assay: Navigating the Kinome. Panel member name: ACVR1
Chain of Activin receptor type-1 (Q04771 whole entry): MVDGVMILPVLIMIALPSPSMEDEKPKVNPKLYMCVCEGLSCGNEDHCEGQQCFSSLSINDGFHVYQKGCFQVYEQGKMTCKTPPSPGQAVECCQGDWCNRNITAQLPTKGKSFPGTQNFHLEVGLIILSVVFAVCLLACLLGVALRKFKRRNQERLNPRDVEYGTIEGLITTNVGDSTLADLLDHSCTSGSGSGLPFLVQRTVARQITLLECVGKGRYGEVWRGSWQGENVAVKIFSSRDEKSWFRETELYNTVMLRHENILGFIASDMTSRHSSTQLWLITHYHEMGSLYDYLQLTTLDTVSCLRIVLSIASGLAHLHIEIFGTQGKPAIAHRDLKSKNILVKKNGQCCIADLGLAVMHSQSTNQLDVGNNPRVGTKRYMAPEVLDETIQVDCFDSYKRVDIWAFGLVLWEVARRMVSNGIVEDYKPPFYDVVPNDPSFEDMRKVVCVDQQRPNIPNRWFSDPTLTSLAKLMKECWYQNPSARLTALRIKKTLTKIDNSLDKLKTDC

[7] = molecular target: Dual specificity mitogen-activated protein kinase kinase 1 (Homo sapiens, UniProt Q02750); assay: Navigating the Kinome. Panel member name: MAP2K1
Chain of Dual specificity mitogen-activated protein kinase kinase 1 (Q02750 whole entry): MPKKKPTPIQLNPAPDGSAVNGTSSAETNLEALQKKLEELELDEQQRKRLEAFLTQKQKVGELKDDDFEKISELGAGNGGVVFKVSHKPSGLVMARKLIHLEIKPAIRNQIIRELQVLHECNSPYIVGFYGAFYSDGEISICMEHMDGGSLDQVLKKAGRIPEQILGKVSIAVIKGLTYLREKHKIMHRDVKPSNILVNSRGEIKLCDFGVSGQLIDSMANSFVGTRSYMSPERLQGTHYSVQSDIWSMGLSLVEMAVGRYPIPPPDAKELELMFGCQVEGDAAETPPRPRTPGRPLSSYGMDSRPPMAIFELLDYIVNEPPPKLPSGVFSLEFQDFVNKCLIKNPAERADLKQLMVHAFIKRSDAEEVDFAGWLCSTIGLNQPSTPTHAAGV

[8] = molecular target: Leucine-rich repeat serine/threonine-protein kinase 2 (Homo sapiens, UniProt Q5S007);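 also: value from a broad kinome-wide panel profiling study in which LRRK2 was one of the kinases tested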
[9] = molecular target: Tyrosine-protein kinase Lck (Homo sapiens, UniProt P06239);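 also: lck was assayed as one member of a kinase panel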
Chain of Tyrosine-protein kinase Lck (P06239 whole entry): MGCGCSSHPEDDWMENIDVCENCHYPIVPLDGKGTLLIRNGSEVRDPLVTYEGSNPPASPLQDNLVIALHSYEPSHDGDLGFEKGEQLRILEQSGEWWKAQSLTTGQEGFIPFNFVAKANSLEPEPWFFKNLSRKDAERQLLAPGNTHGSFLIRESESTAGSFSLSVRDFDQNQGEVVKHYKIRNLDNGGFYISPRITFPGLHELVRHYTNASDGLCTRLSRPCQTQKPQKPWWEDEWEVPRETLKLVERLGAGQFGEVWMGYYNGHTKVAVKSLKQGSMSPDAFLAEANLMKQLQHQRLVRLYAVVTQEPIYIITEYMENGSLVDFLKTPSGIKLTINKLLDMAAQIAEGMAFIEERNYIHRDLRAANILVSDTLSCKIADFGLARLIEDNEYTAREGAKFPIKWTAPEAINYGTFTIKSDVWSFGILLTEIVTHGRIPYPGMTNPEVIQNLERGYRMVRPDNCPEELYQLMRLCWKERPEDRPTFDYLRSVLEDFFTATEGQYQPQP

[10] = molecular target: Cyclin-dependent kinase 7 (Homo sapiens, UniProt P50613);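 also: value comes from a kinome-wide kinase profiling panel in which CDK7 is one member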
[11] = molecular target: Macrophage colony-stimulating factor 1 receptor (Homo sapiens, UniProt P07333);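 also: value comes from the Navigating the Kinome screening panel, CSF1R member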
[12] = molecular target: Fibroblast growth factor receptor 1 (Homo sapiens, UniProt P11362)
[13] = molecular target: Vascular endothelial growth factor receptor 2 (Homo sapiens, UniProt P35968)
[14] = molecular target: Dual specificity tyrosine-phosphorylation-regulated kinase 1A (Homo sapiens, UniProt Q13627);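 also: measured against DYRK1A as one member of a broad kinome profiling panel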
[15] = molecular target: Serine/threonine-protein kinase Chk1 (Homo sapiens, UniProt O14757);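 also: measured as one member of a kinome-wide kinase profiling panel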
Chain of Serine/threonine-protein kinase Chk1 (O14757 whole entry): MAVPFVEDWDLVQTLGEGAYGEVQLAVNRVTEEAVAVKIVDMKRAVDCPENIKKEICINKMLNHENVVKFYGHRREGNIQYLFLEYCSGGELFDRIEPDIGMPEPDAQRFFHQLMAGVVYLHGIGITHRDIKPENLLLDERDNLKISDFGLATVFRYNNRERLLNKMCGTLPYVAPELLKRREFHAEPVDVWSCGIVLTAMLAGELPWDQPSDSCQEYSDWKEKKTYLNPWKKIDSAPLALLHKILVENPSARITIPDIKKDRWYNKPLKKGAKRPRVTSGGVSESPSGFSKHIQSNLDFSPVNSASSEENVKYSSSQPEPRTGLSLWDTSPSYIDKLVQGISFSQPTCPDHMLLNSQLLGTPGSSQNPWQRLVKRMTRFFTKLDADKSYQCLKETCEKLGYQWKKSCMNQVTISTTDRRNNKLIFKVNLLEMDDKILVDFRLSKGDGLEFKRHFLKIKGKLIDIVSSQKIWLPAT

Aurora kinase A = molecular target: T1, Aurora kinase A (Homo sapiens, UniProt O14965);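 also: value from the Navigating the Kinome kinase panel profiling, panel entry STK6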
T1 sequence (O14965 whole entry): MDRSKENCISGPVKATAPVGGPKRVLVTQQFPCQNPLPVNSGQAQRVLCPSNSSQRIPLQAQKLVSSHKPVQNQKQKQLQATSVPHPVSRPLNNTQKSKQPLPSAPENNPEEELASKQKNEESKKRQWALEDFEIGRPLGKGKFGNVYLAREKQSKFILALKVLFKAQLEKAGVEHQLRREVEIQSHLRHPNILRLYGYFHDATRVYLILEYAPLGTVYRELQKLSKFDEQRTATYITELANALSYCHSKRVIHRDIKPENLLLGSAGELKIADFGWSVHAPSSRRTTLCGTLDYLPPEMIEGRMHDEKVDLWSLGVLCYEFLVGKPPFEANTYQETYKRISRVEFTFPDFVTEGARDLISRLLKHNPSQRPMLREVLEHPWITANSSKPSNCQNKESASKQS

Aurora kinase B = Aurora kinase B (Homo sapiens, UniProt Q96GD4)
[16] = molecular target: Tyrosine-protein kinase Fyn (Homo sapiens, UniProt P06241)
[17] = molecular target: Mitogen-activated protein kinase kinase kinase kinase 2 (Homo sapiens, UniProt Q12851);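 also: measured as one member of a kinome-wide kinase panel, with MAP4K2 as the panel entry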
Chain of Mitogen-activated protein kinase kinase kinase kinase 2 (Q12851 whole entry): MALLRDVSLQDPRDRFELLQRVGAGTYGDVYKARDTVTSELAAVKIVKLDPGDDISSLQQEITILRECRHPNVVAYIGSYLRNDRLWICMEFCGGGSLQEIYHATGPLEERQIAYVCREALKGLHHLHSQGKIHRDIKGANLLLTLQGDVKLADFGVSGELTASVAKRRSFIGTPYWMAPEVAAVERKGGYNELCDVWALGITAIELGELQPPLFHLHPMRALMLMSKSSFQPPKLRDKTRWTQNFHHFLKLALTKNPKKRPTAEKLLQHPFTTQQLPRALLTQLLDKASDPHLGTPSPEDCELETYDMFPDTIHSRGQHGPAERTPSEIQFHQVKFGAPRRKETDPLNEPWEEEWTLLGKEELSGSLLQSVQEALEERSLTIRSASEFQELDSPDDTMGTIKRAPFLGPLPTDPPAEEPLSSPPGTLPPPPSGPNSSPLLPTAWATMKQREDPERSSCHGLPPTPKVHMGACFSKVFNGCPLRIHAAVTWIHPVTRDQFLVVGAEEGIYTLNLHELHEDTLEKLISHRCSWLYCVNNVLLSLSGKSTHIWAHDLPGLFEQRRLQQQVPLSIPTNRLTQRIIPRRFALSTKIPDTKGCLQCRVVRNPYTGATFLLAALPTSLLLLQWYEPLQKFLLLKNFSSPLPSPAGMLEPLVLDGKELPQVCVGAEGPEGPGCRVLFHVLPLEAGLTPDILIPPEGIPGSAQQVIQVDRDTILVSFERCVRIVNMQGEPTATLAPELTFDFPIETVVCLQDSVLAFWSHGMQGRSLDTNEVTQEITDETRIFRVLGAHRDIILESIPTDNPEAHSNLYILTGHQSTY

[18] = molecular target: Receptor-type tyrosine-protein kinase FLT3 (Homo sapiens, UniProt P36888);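 also: FLT3 was tested as one member of a kinome-wide kinase panel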
[19] = molecular target: Macrophage-stimulating protein receptor (Homo sapiens, UniProt Q04912); assay: Navigating the Kinome. Panel member name: MST1R
[20] = molecular target: Casein kinase I isoform alpha (Homo sapiens, UniProt P48729)
[21] = molecular target: Dual specificity protein kinase CLK4 (Homo sapiens, UniProt Q9HAZ1)
[22] = molecular target: Cyclin-dependent kinase 5 (Homo sapiens, UniProt Q00535);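 also: CDK5 measured as one member of a kinase profiling panel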
[23] = molecular target: Serine/threonine-protein kinase pim-1 (Homo sapiens, UniProt P11309)
[24] = molecular target: Mitogen-activated protein kinase kinase kinase kinase 4 (Homo sapiens, UniProt O95819)
[25] = molecular target: cAMP-dependent protein kinase catalytic subunit alpha (Homo sapiens, UniProt P17612)
[26] = molecular target: Dual specificity tyrosine-phosphorylation-regulated kinase 1B (Homo sapiens, UniProt Q9Y463); assay: Navigating the Kinome. Panel member name: DYRK1B
[27] = molecular target: Platelet-derived growth factor receptor alpha (Homo sapiens, UniProt P16234); assay: Navigating the Kinome. Panel member name: PDGFRA
Chain of Platelet-derived growth factor receptor alpha (P16234 whole entry): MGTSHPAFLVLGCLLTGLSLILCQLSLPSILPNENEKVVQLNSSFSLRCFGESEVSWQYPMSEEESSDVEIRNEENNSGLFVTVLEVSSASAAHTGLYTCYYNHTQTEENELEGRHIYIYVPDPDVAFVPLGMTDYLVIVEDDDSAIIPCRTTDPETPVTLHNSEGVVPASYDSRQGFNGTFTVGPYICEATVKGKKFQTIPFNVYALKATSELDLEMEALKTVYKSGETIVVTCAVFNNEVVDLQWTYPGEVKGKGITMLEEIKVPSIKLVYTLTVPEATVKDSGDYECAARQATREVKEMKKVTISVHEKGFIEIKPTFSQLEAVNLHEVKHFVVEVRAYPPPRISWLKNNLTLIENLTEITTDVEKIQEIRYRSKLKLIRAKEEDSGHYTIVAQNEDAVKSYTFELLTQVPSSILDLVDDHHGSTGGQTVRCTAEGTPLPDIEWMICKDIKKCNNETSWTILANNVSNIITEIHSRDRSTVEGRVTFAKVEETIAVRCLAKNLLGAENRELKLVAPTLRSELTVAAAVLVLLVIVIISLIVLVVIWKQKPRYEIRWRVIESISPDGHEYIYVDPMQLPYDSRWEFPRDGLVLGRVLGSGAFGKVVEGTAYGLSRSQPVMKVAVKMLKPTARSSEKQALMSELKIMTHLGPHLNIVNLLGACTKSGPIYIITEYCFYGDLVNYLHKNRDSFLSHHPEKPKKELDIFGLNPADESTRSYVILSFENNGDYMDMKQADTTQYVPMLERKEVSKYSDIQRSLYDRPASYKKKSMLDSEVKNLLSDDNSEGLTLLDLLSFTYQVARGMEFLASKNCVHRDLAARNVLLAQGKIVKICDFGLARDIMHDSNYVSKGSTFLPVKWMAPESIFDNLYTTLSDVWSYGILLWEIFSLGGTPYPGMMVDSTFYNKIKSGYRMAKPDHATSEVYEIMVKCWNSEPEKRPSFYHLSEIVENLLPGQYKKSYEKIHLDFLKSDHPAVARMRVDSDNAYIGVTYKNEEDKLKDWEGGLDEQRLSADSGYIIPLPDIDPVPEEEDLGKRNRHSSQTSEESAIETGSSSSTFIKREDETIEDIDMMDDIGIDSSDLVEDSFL

[28] = molecular target: Rho-associated protein kinase 1 (Homo sapiens, UniProt Q13464);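 also: measured within a broad kinome-wide panel profiling many kinases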
[29] = molecular target: Leukocyte tyrosine kinase receptor (Homo sapiens, UniProt P29376); assay: Navigating the Kinome. Panel member name: LTK
[30] = molecular target: Cyclin-dependent kinase 8 (Homo sapiens, UniProt P49336); assay: Navigating the Kinome. Panel member name: CDK8
[31] = molecular target: Glycogen synthase kinase-3 beta (Homo sapiens, UniProt P49841);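 also: value comes from a broad kinome profiling panel, with GSK3B as the panel member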
[32] = molecular target: Hepatocyte growth factor receptor (Homo sapiens, UniProt P08581);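 also: kinase panel profiling across the kinome, with MET as the panel member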

Ki [1]: 100 µM (active)
Ki [2]: 39.8 µM (active)
Ki [3]: > 100 µM (inactive)
Ki [4]: 39.8 µM (active)
Ki [5]: 31.6 µM (active)
Ki (LIM domain kinase 1): 20 µM (active)
Ki [6]: 25.1 µM (active)
Ki (Activin receptor type-1): 3.16 µM (active)
Ki [7]: 2 µM (active)
Ki [8]: 15.8 µM (active)
Ki [9]: 100 µM (active)
Ki [10]: 50.1 µM (active)
Ki [11]: 15.8 µM (active)
Ki [12]: 79.4 µM (active)
Ki [13]: 100 µM (active)
Ki [14]: 12.6 µM (active)
Ki [15]: 39.8 µM (active)
Ki (Aurora kinase A): > 63.1 µM (inactive)
Ki (Aurora kinase B): 6.31 µM (active)
Ki [16]: 79.4 µM (active)
Ki [17]: 3.16 µM (active)
Ki [18]: 63.1 µM (active)
Ki [19]: 50.1 µM (active)
Ki [20]: 25.1 µM (active)
Ki [21]: 5.01 µM (active)
Ki [22]: 5.01 µM (active)
Ki [23]: 5.01 µM (active)
Ki [24]: 10 µM (active)
Ki [25]: 10 µM (active)
Ki [26]: 10 µM (active)
Ki [27]: 15.8 µM (active)
Ki [28]: 10 µM (active)
Ki [29]: 7.94 µM (active)
Ki [30]: 3.16 µM (active)
Ki [31]: 39.8 µM (active)
Ki [32]: 31.6 µM (active)
Structure (SMILES): Cc1cccc(-c2cccc3onc(N)c23)c1
